Results taken from ChEMBL document CHEMBL1201862, “PubChem BioAssay data set” (2004).
The source made the active and inactive calls.

How the values were obtained:
Cytochrome P450 1A2 = target: T1, Cytochrome P450 1A2 (Homo sapiens, UniProt P05177);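 note: PubChem cytochrome P450 panel assay, CYP1A2 panel member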
T1 sequence (P05177 whole entry): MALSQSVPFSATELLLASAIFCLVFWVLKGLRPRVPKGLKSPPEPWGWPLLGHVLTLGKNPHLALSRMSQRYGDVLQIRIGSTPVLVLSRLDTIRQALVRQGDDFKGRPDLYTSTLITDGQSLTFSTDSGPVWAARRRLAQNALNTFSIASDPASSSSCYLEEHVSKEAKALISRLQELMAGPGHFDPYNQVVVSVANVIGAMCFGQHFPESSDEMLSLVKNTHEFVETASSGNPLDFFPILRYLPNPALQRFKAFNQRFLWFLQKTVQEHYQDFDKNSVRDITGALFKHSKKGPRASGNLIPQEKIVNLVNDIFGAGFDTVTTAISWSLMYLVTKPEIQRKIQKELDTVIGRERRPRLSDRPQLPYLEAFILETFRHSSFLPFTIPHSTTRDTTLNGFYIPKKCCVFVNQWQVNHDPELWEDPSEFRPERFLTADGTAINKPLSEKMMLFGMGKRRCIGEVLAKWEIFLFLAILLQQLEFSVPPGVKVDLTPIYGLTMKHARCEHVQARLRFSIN

[1] = target: Eukaryotic translation initiation factor 4E (Mus musculus, UniProt P63073); test: eIF4E–eIF4G protein interaction inhibitors, dose response, biochemical, TR-FRET (AID 855); type: functional;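 note: potency for disrupting eIF4E binding to eIF4GI seen as loss of FRET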
Sequence of Eukaryotic translation initiation factor 4E (P63073 whole entry): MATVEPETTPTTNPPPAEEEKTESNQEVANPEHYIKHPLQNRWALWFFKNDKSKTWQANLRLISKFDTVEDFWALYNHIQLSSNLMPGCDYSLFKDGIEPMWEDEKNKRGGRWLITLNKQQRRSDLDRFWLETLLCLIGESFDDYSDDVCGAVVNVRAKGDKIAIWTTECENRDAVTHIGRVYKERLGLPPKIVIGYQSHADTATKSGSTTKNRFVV

Cytochrome P450 2C9 = Cytochrome P450 2C9 (Homo sapiens, UniProt P11712)
Sequence of Cytochrome P450 2C9 (P11712 whole entry): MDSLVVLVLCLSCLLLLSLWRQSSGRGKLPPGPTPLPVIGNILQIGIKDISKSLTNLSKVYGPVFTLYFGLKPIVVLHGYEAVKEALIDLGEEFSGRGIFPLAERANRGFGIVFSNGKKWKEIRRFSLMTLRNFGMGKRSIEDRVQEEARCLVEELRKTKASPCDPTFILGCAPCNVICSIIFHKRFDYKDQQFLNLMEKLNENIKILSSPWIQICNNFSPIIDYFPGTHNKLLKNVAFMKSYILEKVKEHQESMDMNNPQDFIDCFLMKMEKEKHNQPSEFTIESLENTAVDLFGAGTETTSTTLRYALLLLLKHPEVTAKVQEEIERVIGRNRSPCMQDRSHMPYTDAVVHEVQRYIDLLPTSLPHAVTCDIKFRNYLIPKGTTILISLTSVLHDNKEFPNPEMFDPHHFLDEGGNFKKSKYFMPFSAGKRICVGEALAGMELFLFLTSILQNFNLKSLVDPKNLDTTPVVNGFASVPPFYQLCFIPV

Genome polyprotein = Genome polyprotein (dengue virus type 2, UniProt P29990); test: Dengue-2 NS5 methyltransferase inhibitors, primary screen, biochemical, confirmation dose response (AID 588689); type: functional
Sequence of Genome polyprotein (P29990 2492-3391 limits assumed): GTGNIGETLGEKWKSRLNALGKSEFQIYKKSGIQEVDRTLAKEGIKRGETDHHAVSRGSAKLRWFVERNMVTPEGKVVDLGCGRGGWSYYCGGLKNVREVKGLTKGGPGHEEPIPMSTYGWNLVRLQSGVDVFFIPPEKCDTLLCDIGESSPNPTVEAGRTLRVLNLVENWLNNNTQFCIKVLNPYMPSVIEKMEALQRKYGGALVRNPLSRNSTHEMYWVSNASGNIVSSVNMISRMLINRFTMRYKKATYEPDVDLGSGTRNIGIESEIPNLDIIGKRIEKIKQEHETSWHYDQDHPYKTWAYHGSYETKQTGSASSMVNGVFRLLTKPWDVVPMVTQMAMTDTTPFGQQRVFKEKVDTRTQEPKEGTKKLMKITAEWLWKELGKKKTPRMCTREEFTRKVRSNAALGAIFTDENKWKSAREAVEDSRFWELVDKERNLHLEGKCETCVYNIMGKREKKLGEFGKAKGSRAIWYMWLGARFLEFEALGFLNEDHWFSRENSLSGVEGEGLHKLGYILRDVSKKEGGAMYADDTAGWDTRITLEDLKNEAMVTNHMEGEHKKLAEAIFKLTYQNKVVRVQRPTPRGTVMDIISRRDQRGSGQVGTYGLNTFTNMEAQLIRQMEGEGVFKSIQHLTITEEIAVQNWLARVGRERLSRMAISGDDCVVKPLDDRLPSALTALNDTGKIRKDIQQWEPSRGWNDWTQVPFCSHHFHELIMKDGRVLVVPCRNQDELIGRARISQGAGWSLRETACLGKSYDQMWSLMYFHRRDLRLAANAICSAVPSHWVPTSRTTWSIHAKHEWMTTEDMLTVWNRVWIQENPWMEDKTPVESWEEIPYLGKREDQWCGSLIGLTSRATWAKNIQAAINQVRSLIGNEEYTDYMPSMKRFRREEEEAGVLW

[2] = inhibitors of intracellular T. cruzi replication, confirmation, NIH3T3 host cells, beta-gal luminescence (AID 2044); type: functional, cell-based;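 note: intracellular parasites grown in NIH/3T3 mouse fibroblasts as host cells; luminescent beta-galactosidase reporter signal from transgenic T. cruzi replicating inside host cells; inhibitors lower the luminescence signal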
INS1 = test: beta cell apoptosis inhibitors, cytokine rescue, dose response, luminescence, retest (AID 449756); type: functional, cell-based; settings: Rattus norvegicus;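 note: cell death triggered by IL-1 beta plus TNF-alpha plus IFN-gamma mixture; protective hits raise ATP signal compared with cytokine alone wells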
[3] = C. albicans growth with fluconazole, confirmation, fluorescence, retest (AID 2467); type: functional, cell-based
[4] = cytotoxicity toward NIH3T3 fibroblasts, dose response, counter-screen, cell-based, ATP luminescence, mouse fibroblasts (AID 2010); type: functional;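 note: cells exposed to compound for about 90 hours before reading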
[5] = target: T2, Microphthalmia-associated transcription factor (Homo sapiens, UniProt O75030); test: TRPM1 promoter luciferase signal decrease, dose response, MITF inhibitor project, cell-based, SK-MEL-5, cherry-picked, set 3 (AID 493073); type: functional
T2 sequence (O75030 whole entry): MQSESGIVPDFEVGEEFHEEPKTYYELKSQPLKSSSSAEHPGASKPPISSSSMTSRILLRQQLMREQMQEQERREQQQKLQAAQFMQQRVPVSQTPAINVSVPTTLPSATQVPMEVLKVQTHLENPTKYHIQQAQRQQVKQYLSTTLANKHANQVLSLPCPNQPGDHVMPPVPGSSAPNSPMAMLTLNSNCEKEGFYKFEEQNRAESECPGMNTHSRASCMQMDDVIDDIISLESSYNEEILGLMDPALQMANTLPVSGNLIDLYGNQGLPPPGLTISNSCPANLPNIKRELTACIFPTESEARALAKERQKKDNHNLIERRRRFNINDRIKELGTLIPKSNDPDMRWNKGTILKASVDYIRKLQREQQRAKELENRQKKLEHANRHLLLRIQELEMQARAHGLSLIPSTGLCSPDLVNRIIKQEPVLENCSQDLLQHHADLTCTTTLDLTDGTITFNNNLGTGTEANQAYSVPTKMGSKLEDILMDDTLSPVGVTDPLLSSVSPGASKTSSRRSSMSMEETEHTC

[6] = NIH-3T3 fibroblast cytotoxicity, dose response, cytotoxicity control, cell-based, fluorescence, Alamar Blue, secondary assay (AID 2327); type: functional;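 note: NIH-3T3 mouse fibroblasts cultured with fluconazole at 8 µg/mL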
Cytochrome P450 2D6 = Cytochrome P450 2D6 (Homo sapiens, UniProt P10635);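 note: CYP2D6 member of a cytochrome P450 panel assay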
Sequence of Cytochrome P450 2D6 (P10635 whole entry): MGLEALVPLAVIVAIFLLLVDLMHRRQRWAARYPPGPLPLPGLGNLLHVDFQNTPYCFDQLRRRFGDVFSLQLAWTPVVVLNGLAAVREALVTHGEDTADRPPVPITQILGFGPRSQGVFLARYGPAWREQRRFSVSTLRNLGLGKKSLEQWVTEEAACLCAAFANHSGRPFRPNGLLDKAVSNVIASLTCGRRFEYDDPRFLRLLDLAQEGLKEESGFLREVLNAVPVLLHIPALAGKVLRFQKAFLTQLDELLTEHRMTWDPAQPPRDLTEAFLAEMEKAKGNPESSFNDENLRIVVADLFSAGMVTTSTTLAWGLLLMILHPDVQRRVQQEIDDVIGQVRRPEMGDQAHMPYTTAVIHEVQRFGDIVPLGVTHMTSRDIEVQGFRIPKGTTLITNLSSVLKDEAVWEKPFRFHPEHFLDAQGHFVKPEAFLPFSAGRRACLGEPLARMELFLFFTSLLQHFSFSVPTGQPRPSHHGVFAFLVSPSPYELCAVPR

[7] = target: T3, Sentrin-specific protease 7 (Homo sapiens, UniProt Q9BQF6); type: functional;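 note: Luminescence-based dose-response confirmation of ultra-high-throughput screening hits, measuring inhibition of SENP7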
T3 sequence (Q9BQF6 whole entry): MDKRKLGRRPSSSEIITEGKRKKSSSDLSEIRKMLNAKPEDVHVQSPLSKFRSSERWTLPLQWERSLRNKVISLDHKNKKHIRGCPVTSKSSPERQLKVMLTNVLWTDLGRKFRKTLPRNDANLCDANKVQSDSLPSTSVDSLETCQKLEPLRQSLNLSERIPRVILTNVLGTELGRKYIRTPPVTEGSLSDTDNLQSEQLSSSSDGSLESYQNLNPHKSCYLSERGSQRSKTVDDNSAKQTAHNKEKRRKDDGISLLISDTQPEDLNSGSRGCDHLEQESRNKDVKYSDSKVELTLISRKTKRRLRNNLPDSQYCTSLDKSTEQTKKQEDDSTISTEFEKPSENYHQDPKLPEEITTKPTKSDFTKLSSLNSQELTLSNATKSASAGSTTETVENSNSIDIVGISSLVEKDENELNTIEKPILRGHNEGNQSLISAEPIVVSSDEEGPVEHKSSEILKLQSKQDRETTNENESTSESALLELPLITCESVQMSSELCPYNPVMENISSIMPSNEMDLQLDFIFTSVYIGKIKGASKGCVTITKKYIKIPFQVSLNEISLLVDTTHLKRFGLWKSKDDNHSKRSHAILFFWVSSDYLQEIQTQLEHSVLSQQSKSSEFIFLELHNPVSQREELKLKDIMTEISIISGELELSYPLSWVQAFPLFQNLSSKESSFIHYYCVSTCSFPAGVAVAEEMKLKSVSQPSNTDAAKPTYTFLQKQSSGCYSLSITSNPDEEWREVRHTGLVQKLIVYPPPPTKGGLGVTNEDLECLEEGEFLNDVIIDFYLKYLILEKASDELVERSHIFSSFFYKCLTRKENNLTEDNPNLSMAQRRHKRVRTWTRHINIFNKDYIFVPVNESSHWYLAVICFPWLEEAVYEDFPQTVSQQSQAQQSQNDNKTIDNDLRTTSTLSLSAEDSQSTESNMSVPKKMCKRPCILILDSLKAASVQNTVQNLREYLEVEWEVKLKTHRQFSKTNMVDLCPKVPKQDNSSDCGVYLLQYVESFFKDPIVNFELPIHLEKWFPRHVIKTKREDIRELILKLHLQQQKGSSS

[8] = target: T4, Sentrin-specific protease 6 (Homo sapiens, UniProt Q9GZR1); type: functional;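 note: Luminescence-based dose-response confirmatory assay of SENP6 inhibition, following up an ultra-high-throughput screen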
T4 sequence (Q9GZR1 whole entry): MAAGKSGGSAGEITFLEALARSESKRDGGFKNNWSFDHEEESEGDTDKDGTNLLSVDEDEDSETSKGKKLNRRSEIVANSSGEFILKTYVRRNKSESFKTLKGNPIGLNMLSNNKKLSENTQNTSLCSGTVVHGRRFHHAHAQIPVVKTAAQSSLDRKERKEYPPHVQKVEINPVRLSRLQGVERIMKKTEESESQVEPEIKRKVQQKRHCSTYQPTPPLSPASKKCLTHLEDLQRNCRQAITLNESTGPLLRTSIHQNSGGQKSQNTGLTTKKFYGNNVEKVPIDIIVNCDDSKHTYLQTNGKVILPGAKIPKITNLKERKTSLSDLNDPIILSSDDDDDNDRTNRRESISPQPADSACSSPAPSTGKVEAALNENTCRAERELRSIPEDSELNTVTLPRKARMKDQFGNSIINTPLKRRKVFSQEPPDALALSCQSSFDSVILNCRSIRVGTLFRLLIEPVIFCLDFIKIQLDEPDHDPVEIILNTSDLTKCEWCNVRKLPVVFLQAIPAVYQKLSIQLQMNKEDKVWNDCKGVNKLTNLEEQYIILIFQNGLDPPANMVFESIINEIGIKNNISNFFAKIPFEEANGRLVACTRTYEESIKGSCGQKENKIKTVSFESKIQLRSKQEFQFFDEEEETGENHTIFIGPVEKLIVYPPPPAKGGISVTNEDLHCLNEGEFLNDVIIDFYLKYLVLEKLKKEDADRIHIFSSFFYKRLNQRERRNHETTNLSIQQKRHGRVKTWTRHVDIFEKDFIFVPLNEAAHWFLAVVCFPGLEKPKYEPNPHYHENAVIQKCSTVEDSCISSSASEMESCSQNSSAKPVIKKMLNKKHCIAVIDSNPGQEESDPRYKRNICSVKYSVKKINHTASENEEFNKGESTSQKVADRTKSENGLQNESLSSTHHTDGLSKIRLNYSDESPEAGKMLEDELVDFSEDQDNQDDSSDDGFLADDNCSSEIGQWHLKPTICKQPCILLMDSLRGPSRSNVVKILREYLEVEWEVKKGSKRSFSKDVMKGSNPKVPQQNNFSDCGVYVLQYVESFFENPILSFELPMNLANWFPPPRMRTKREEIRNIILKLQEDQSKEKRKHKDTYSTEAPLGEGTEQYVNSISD

[9] = target: T5, Sentrin-specific protease 8 (Homo sapiens, UniProt Q96LD8); type: functional;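 note: luminescence read-out of SENP8 inhibition, dose-response confirmation following an ultra-high-throughput screen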
T5 sequence (Q96LD8 whole entry): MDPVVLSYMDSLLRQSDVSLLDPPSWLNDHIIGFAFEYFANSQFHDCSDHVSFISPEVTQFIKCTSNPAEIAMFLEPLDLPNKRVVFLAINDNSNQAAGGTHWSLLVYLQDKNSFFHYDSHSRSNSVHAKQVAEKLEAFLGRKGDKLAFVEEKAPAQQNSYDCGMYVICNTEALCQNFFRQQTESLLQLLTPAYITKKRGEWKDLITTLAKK

Caspase-3 = target: T6, Caspase-3 (Homo sapiens, UniProt P42574); type: functional;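 note: Dose-response selectivity test against caspase-3 for candidate inhibitors of sentrin-specific proteases (SENPs)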
T6 sequence (P42574 whole entry): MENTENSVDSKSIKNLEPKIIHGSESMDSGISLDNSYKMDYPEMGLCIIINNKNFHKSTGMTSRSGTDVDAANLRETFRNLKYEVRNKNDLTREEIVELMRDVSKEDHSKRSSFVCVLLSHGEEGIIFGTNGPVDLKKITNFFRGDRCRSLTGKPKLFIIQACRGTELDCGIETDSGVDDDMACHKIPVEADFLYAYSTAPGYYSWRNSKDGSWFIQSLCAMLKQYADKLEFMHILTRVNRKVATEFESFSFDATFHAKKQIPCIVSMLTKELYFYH

[10] = HEp-2 cell cytotoxicity, dose response, cytotoxicity control for RSV inhibitor project, HTS (AID 2410); type: functional; settings: human respiratory syncytial virus
Streptococcus = test: Group A Streptococcus viability loss, dose response, counter-screen for streptokinase expression inhibitor project, luminescence, BacTiterGlo (AID 1915); type: functional, organism-based;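 note: potency for reduction of bacterial viability or growth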
[11] = test system: Streptococcus sp. 'group A'; test: growth inhibition of control SK(-) GAS strain, dose response, counter-screen for streptokinase expression inhibitor project, luminescence, kanamycin, BacTiterGlo, confirmation (AID 1900); type: functional, organism-based
Vero = test: cells; type: functional; settings: Chlorocebus sabaeus
Streptokinase A = target: T7, Streptokinase A (Streptococcus pyogenes serotype M1, UniProt P10520); test: S. pyogenes streptokinase expression inhibitors, potency, dose response, plasminogen activation absorbance, OD405 (AID 1914); type: functional, Streptococcus pyogenes M1 GAS;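 note: secreted streptokinase activity via plasminogen activation per viability signal from cell pellet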
T7 sequence (P10520 whole entry): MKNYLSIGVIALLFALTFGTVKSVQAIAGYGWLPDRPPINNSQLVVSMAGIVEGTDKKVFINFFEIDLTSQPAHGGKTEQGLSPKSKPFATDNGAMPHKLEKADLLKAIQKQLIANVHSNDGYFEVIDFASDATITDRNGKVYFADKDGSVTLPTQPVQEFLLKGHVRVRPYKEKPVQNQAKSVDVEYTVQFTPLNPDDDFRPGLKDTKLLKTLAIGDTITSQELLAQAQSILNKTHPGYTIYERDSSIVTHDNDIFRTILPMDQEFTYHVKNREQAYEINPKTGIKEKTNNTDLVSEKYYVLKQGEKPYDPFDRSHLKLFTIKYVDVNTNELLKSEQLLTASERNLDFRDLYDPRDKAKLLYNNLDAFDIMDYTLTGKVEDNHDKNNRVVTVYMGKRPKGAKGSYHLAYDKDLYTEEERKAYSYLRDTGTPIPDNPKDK

Structure (SMILES): Cc1cccc(-n2cnc(C(=O)NC3CCCCCC3)c2)n1
- AC50 (Cytochrome P450 1A2): 11.2 µM (inconclusive)
- IC50 [1]: > 64 µM (inactive)
- AC50 (Cytochrome P450 2C9): inconclusive

Structure (SMILES): CCOC(=O)c1c(C)oc2c1cc(NS(=O)(=O)c1ccc(C(=O)O)cc1)c1ccccc12
- IC50 (Genome polyprotein): 73.8 µM (active)

Structure (SMILES): CCCOCc1ccc(O)c2ncccc12
- EC50 [2]: 2.5 µM (active)
- AC50 (INS1): 3.29 µM (active)
- EC50 [3]: 2.75 µM (active)
- EC50 [4]: 8.03 µM (active)
- AC50 [5]: 15.5 µM (active)
- EC50 [6]: 16.2 µM (inconclusive)

Structure (SMILES): O=C(CCN1C(=O)C2C3C=CC(C3)C2C1=O)NCCN1CCCc2ccccc21 (centres undefined)
- AC50 (Cytochrome P450 1A2): 10 µM (inconclusive)
- AC50 (Cytochrome P450 2D6): 22.4 µM (inconclusive)
- AC50 (Cytochrome P450 2C9): inconclusive

Structure (SMILES): O=[N+]([O-])c1ccc(O)c(/C=N/c2ccc3c(c2)OCO3)c1
- IC50 (Genome polyprotein): 41.9 µM (active)

Structure (SMILES): COc1ccc(C(=N)NOC(=O)C2CCCCC2)cc1
- IC50 [7]: 9.16 µM (active)
- IC50 [8]: 29.6 µM (active)
- IC50 [9]: 44.1 µM (active)
- IC50 (Caspase-3): 28.4 µM (active)

Structure (SMILES): C[C@@H](Cc1cccc(C(F)(F)F)c1)NCCOC(=O)c1ccccc1
- AC50 (Cytochrome P450 2C9): inconclusive

Structure (SMILES): COc1ccc2oc(=O)c(-c3csc(Nc4ccc(O)cc4)n3)cc2c1
- CC50 [10]: 38.5 µM (active)
- EC50 (Streptococcus): 13.8 µM (active)
- EC50 [11]: 7.11 µM (active)
- CC50 (Vero): 13.3 µM (active)
- EC50 (Streptokinase A): > 150 µM (not active)

Structure (SMILES): Cc1cc2c(cc1S(N)(=O)=O)S(=O)(=O)CCC2
- AC50 (Cytochrome P450 2C9): inconclusive

Structure (SMILES): CCOc1ccc(NC(=O)c2oc3ccccc3c2NC(=O)CC)cc1
- AC50 (Cytochrome P450 2C9): inconclusive

Structure (SMILES): COc1cccc(/C=C2\SC(=S)N(CCC(=O)NC3C=CS(=O)(=O)C3)C2=O)c1 (centres undefined)
- CC50 (Vero): 23.8 µM (active)

Structure (SMILES): O=C1NC(=O)N(c2ccc(F)cc2)C(=O)/C1=C/c1ccc(N2CCOCC2)cc1
- IC50 (Genome polyprotein): > 100 µM (active)

Structure (SMILES): CC(=O)N(C[C@@H](C)C(=O)O)c1c(I)cc(I)c(N)c1I
- AC50 (Cytochrome P450 2C9): inconclusive
